Usually EC50 stands for the concentration needed to bring the measured effect to its halfway point.

For one experiment, the target named is T1, human TRPM8 receptor (Homo sapiens, UniProt Q7Z2W7).
T1 construct: expressed in transfected cells
The experiment in a line: Assay for TRPM8 modulators: Ca2+ fluorescence (Fluo-4) in HEK293-TRPM8 test cells. The experiment is classed as cell-based. Particulars: HEK293 cells stably transfected with human TRPM8, agonism, triplicates, 0.1-200 μM; read-out: Activity In vitro assay (EC50). An excerpt:
The test cell system produced, with human TRPM8 DNA, was a stably transfected HEK293 cell line. Preference is given here to HEK293 which, via the plasmid introduced, offers the option of induction of TRPM8 expression by means of tetracycline.
The agonism or antagonism of the receptor can be quantified by means of a Ca^2+-sensitive dye (e.g. FURA, Fluo-4 etc.). Agonists on their own result in an increase in the Ca^2+ signal; antagonists in the presence of menthol, for example, result in a reduction in the Ca^2+ signal (in each case detected by means of the Fluo-4 dye which is caused to have different fluorescence properties by Ca^2+).
First of all, in a manner known per se, a fresh culture of transformed HEK cells is produced in cell culture bottles. The HEK293-TRPM8 test cells are detached from the cell culture bottles by means of trypsin and 40 000 cells/well are sown with 100 μl of medium in 96-hole plates (Greiner #655948 poly-D-lysine-coated). For induction of the TRPM8 receptor, tetracycline is added to the growth medium (DMEM/HG, 10% FCS tetracycline-free, 4 mM L-glutamine, 15 μg/mL blasticidin, 100 μg/mL hygromycin B, 1 μg/mL tetracycline). The next day, the cells are laden with Fluo-4AM dye and the test is conducted.
The test substances are used in the assay in triplicates in concentrations of 0.1-200 μM. Normally, the compounds are kept in DMSO solutions and diluted down for the assay to a maximum DMSO concentration of 2%.

In the next experiment the test system is trained panelists. The experiment in a line: Sensory assessment: cooling intensity of inventive amides in 5% sugar solution compared to FEMA 4809. Particulars: scale 1 (very weak) to 9 (very strong), n=10 to 11. The experiment is classed as in vivo, human. The method, then: […] What were assessed here were initial cooling intensity, overall cooling intensity and long-lasting action on a scale from 1 (very weak) to 9 (very strong).

T1 sequence (Q7Z2W7 whole entry): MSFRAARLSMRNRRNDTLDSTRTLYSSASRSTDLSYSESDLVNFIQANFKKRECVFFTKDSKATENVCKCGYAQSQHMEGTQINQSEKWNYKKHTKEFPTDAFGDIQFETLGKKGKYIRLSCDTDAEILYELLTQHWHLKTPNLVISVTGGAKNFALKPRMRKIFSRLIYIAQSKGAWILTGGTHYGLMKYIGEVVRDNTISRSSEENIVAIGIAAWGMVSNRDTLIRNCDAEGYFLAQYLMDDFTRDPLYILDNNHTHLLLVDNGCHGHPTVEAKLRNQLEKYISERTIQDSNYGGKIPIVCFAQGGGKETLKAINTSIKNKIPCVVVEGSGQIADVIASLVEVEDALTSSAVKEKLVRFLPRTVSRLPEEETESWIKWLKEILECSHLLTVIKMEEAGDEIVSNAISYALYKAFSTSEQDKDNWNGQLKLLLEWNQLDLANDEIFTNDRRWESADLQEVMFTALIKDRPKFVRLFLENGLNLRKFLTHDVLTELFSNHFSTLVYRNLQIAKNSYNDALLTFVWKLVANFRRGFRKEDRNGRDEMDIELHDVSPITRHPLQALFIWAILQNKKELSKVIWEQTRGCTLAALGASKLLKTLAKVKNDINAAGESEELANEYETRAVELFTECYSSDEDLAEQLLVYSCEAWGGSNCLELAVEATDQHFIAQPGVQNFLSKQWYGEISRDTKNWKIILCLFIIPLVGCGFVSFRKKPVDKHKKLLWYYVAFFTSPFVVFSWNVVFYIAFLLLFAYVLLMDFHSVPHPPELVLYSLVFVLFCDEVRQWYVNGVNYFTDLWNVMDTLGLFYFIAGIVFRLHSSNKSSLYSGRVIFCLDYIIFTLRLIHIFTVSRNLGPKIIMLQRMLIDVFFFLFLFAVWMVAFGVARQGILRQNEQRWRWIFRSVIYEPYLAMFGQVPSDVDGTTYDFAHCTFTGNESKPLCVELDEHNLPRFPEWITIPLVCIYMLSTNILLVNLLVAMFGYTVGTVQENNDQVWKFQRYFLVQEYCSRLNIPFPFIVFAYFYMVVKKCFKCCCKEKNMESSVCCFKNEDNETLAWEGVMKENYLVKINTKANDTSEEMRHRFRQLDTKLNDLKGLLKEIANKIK

Regarding `CSCCN(C(=O)COc1ccc(C)cc1)c1ccccc1` [2-(4-methylphenoxy)-N-(2-methylsulfanylethyl)-N-phenyl-acetamide], the EC50 on human TRPM8 receptor turned out to be 25 µM. Besides, in the experiment with trained panelists (20 ppm in 5% sugar solution), the Initial cooling effect is given as 2.2, the Long-lasting action was found to be 2.8 and the Overall cooling intensity came out at 2.8.
Turning to `Cc1ccc(OCC(=O)N(c2ccccc2)C2CCSC2)cc1` (stereo not drawn) [2-(4-methylphenoxy)-N-phenyl-N-tetrahydrothiophen-3-yl-acetamide], the EC50 at human TRPM8 receptor is 12.5 µM.
With `O=C(/C=C/c1ccc2c(c1)OCO2)N(CC1CCCO1)c1cc[nH]n1` (stereo not drawn) [(E)-3-(1,3-benzodioxol-5-yl)-N-(1H-pyrazol-3-yl)-N-(tetrahydrofuran-2-ylmethyl)prop-2-enamide], the half-maximal effective concentration (EC50) at human TRPM8 receptor was 15 µM.
For the compound `O=C(/C=C/c1ccc2c(c1)OCO2)N(CC1CCCS1)c1cc[nH]n1` (stereo not drawn) [(E)-3-(1,3-benzodioxol-5-yl)-N-(1H-pyrazol-3-yl)-N-(tetrahydrothiophen-2-ylmethyl)prop-2-enamide], on human TRPM8 receptor, the EC50 was found to be 5 µM.
Consider `O=C(/C=C/c1ccc2c(c1)OCO2)N(c1ccccn1)C1CCSC1` (stereo not drawn) [(E)-3-(1,3-benzodioxol-5-yl)-N-(2-pyridyl)-N-tetrahydrothiophen-3-yl-prop-2-enamide], for which, at human TRPM8 receptor, the EC50 was found to be 6 µM. Further, in the experiment on trained panelists (20 ppm in 5% sugar solution), the Initial cooling effect was found to be 6.6, the Long-lasting action was determined as 7.9 and the Overall cooling intensity was 8.3.
In the case of `CCN(CCSC)C(=O)/C=C/c1ccc2c(c1)OCO2` [(E)-3-(1,3-benzodioxol-5-yl)-N-ethyl-N-(2-methylsulfanylethyl)prop-2-enamide], the EC50 at human TRPM8 receptor is 15 µM. Moreover, in the experiment with trained panelists (20 ppm in 5% sugar solution), the Initial cooling effect was 3.8, the Long-lasting action is recorded as 4.7 and the Overall cooling intensity is listed as 5.
As for `CCN(CCCSC)C(=O)/C=C/c1ccc2c(c1)OCO2` [(E)-3-(1,3-benzodioxol-5-yl)-N-ethyl-N-(3-methylsulfanylpropyl)prop-2-enamide], the EC50 on human TRPM8 receptor came to 30 µM.
As for `O=C(/C=C/c1ccc2c(c1)OCO2)N(CC1CCCO1)c1ccccc1` (stereo not drawn) [(E)-3-(1,3-benzodioxol-5-yl)-N-phenyl-N-(tetrahydrofuran-2-ylmethyl)prop-2-enamide], the EC50 at human TRPM8 receptor worked out at 5 µM. Also, in the experiment with trained panelists (20 ppm in 5% sugar solution), the Initial cooling effect was 3.1, the Long-lasting action stood at 5.3 and the Overall cooling intensity was 5.0.
`O=C(/C=C/c1ccc2c(c1)OCO2)N(c1ccccc1)C1CCOC1` (stereo not drawn) [(E)-3-(1,3-benzodioxol-5-yl)-N-phenyl-N-tetrahydrofuran-3-yl-prop-2-enamide]: at human TRPM8 receptor, the EC50 was determined as 25 µM. In the experiment on trained panelists (2 ppm in 5% sugar solution), this compound yielded an Initial cooling effect of 4.1, a Long-lasting action of 6.9 and an Overall cooling intensity of 6.1. In the experiment with trained panelists (20 ppm in 5% sugar solution), the Initial cooling effect was determined as 5.8, the Long-lasting action amounted to 7.9 and the Overall cooling intensity is listed as 7.8.
For `COc1ccc(/C=C/C(=O)N(CC2CCCO2)c2cc[nH]n2)cc1` (stereo not drawn) [(E)-3-(4-methoxyphenyl)-N-(1H-pyrazol-3-yl)-N-(tetrahydrofuran-2-ylmethyl)prop-2-enamide], the EC50 on human TRPM8 receptor was 25 µM.
On to `COc1ccc(/C=C/C(=O)N(CCSC)c2ccccc2)cc1` [(E)-3-(4-methoxyphenyl)-N-(2-methylsulfanylethyl)-N-phenyl-prop-2-enamide], for which, on human TRPM8 receptor, the EC50 is 25 µM.
Consider `COc1ccc(/C=C/C(=O)N(c2ccccn2)C2CCSC2)cc1` (stereo not drawn) [(E)-3-(4-methoxyphenyl)-N-(2-pyridyl)-N-tetrahydrothiophen-3-yl-prop-2-enamide], for which, at human TRPM8 receptor, the EC50 is 25 µM. Further, in the experiment on trained panelists (20 ppm in 5% sugar solution), the Initial cooling effect was found to be 4.1, the Long-lasting action worked out at 5.9 and the Overall cooling intensity is 5.6.
Turning to `COc1ccc(/C=C/C(=O)N(CC2CCCO2)c2ccccc2)cc1` (stereo not drawn) [(E)-3-(4-methoxyphenyl)-N-phenyl-N-(tetrahydrofuran-2-ylmethyl)prop-2-enamide], the EC50 at human TRPM8 receptor is 25 µM.
As to `COc1ccc(/C=C/C(=O)N(c2ccccc2)C2CCOC2)cc1` (stereo not drawn) [(E)-3-(4-methoxyphenyl)-N-phenyl-N-tetrahydrofuran-3-yl-prop-2-enamide], the EC50 on human TRPM8 receptor was 12.5 µM.
On to `Cc1ccc(/C=C/C(=O)N(CC2CCCO2)c2cc[nH]n2)cc1` (stereo not drawn) [(E)-3-(p-tolyl)-N-(1H-pyrazol-3-yl)-N-(tetrahydrofuran-2-ylmethyl)prop-2-enamide], for which the EC50 at human TRPM8 receptor worked out at 10 µM.
For the compound `Cc1ccc(/C=C/C(=O)N(c2ccccn2)C2CCSC2)cc1` (stereo not drawn) [(E)-3-(p-tolyl)-N-(2-pyridyl)-N-tetrahydrothiophen-3-yl-prop-2-enamide], the EC50 at human TRPM8 receptor stood at 25 µM. In the experiment with trained panelists (20 ppm in 5% sugar solution), this compound returned an Initial cooling effect of 5.3, a Long-lasting action of 7.4 and an Overall cooling intensity of 7.0.
For `O=C(/C=C/c1ccccc1)N(c1ccccn1)C1CCSC1` (stereo not drawn) [(E)-3-phenyl-N-(2-pyridyl)-N-tetrahydrothiophen-3-yl-prop-2-enamide] the same measures were 30 µM, 5.3, 7.8 and 7.8.
On to `COc1ccc(/C=C/C(=O)N(c2ccsc2)C2CCCCC2)cc1` [(E)-N-cyclohexyl-3-(4-methoxyphenyl)-N-(3-thienyl)prop-2-enamide], for which, on human TRPM8 receptor, the EC50 came out at 25 µM.
On the same count and under the same terms, as for `CCN(CCSC)C(=O)/C=C/c1ccc(C)cc1` [(E)-N-ethyl-N-(2-methylsulfanylethyl)-3-(p-tolyl)prop-2-enamide], the figure is 10 µM.
With `Cc1ccc(/C=C/C(=O)N(CC2CCCO2)c2ccccc2)cc1` (stereo not drawn) [(E)-N-phenyl-3-(p-tolyl)-N-(tetrahydrofuran-2-ylmethyl)prop-2-enamide], the EC50 on human TRPM8 receptor worked out at 5 µM.
Still for that read-out and setting: as for `Cc1ccc(OCC(=O)N(c2ccsc2)C2CCCCC2)cc1` [N-cyclohexyl-2-(4-methylphenoxy)-N-(3-thienyl)acetamide], the figure is 30 µM.

The values are drawn from US11434220B2, “Use of physiological cooling active ingredients, and compositions comprising such active ingredients” (BASF SE, priority 2017, dated 2022).
